Reference: patent US6046228A, “Anti-viral pharmaceutical compositions containing saturated 1,2-dithiaheterocyclic compounds and uses thereof” (priority 1999, dated 2000)
Like-named read-outs stand apart in the source and are kept apart here.

Assays:
Pr55^gag = test: immunoblot of viral proteins in U1 cells (Gag precursor processing); format: cell-based, HIV-1; details: FIG. 3(B), in words
Description: U1 cells latently infected with two copies of HIV-1 proviral DNA per cell (Clous et al., J. Immunol. 142: 431-438, (1989)) were treated with 5 ng/ml tumor necrosis factor-α(TNF-α) for 24 hours to stimulate production of HIV-1 virions, after which various concentrations of 624151 were added to the cultures and incubated for an additional 48 hours. Cultures were analyzed for cell viability by the XTT reduction assay and cells were counted and scored for viability by trypan blue exclusion. Cells pellets were lysed (0.5% Triton X-100, 300 mM NaCl, 50 mM Tris-HCl, pH 7.6, 10 μg/ml each of Leupeptin and aprotinin (Boehringer Mannheim), 1.8 mg/ml iodoacetamide (Sigma Chemical Co., St. Louis, Mo.) and 1.0 mg/ml the protease inhibitor Pefabloc SC (Boehringer Mannheim at 4° C. for 15 min. and then quantitated for viral p24 content by ELISA. Cell-free supernatant samples were collected and analyzed for virus content by p24 ELISA, and infectivity in cultures of 174xCEM cells. Briefly, serial 1/2 dilutions of the supernatant were placed with 5×10^3 174xCEM cells and cultured for 7 days, cell supernatants were analyzed for viral p24 content, and the number of infectious units/ml calculated. In addition, cell free supernatants were centrifuged at 17,000×g for 1 hour at 4° C. to collect virion pellets. […]

HIV-1 protease = biological target: T1, HIV-1 protease (Human immunodeficiency virus type 1 group M subtype B, UniProt P04585); test: processing of purified recombinant Pr55^gag by purified HIV-1 protease; format: biochemical; details: data not shown, in words
T1 construct: the purified HIV-1 protease and integrase enzymes

HIV-1 WEJO(SI) = test: antiviral assay in PBL (p24), clinical isolate WEJO; format: cell-based; details: Human immunodeficiency virus 1, cell-free p24
Description: (§1) Initial anti-HIV screening was performed with CEM-SS cells and HIV-1RFusing the XTT cytoprotection assay as previously described (Weislow et al., J. National Cancer Inst. 81: 577-586, (1989)). HIV-1 isolates included common laboratory stains (RF, IIIB and MN), as well as a panel of HIV-1 clinical isolates (Cushman et al., J. Med. Chem. 37: 3040-3050, (1994)). The pyridone-resistant HIV-1A17 isolate (Nunberg et al., J. Virol., 65: 4887-4892 (1991)) was obtained from Emilio Emini at Merck Sharpe and Dohme Laboratories. Phytohemagglutinin-stimulated human peripheral blood lymphocytes (PBLs) and fresh monocyte-macrophage (Mono/MF) cultures were prepared and utilized in antiviral assays as previously described (Rice et al., Proc. Nat'l. Academy Science, USA 90: 9721-9724, (1993)); (Cushman et al., J. Med. Chem. 37: 3040-3050, (1994)). EC50 values for these cultures indicate the drug concentration that provided a 50% reduction in viral p24 production. […] The compounds can be synthesized according to the teachings of Singh et al., Sulfur Letters 8: 107-114, (1988). The 4,5-cis-dihydroxy(1,1-dioxy-1,2,-dithiohexane) compound (NSC 624151) has been abbreviated as 624151 for convenience. […]

HIV-1ADA = test: antiviral assay in monocyte-macrophage cultures (p24); format: cell-based; details: Human immunodeficiency virus 1
Description: as §1, with “convenience. MT-2, MT-4, U1, HeLa-CD4-LTR-β-gal and 174xCEM cells were obtained from the AIDS Research and Reference Program (National Institute of Allergy and Infectious Disease, National Institutes of Health, Bethesda, Md. USA), as were the HIV-2MS and the AZT-resistant HIV-1G910-6 isolates.” for “convenience.”

HIV-2ROD = test: XTT cytopathicity assay, other retroviruses; format: cell-based; details: Human immunodeficiency virus 2, CEM-SS
Description: as §1

HIV-1, HIV-2 and SIV = test: range of antiviral action studies; format: cell-based; details: in words
Description: as §1

HIV-1 SK1 = test: XTT cytopathicity assay, SK1; format: cell-based; details: Human immunodeficiency virus 1, CEM-SS
Description: as §1

Q: For `O=S1(=O)C[C@H](O)[C@H](O)CS1` (relative stereo) [NSC 624151, cis-1,1-dioxo[1,2]dithiane-4,5-diol], which “Pr55^gag processing to p41, p24, p9 and p7 proteins” value (Pr55^gag) is on record?
A: Its value is “prevents processing of precursor proteins to mature viral proteins”.

Q: And the “Pr55^gag processing to p41, p24, p9 and p7 proteins” value (Pr55^gag; listed as 624151)?
A: The value was “decrease in Pr55^gag processing to the p41, p24, p9 and p7 proteins”.

Q: What about the “inhibition of purified HIV-1 protease processing of recombinant Pr55^gag” value (HIV-1 protease) of the same compound?
A: Its value is “not to inhibit purified HIV-1 protease”.

Q: What about the EC50 (HIV-1 WEJO(SI)) of the same compound?
A: Its EC50 is 7.59 µM.

Q: And the EC50 (HIV-1ADA; HIV-1ADA, monocyte/macrophage cultures, 50% reduction in p24, read-out: Mo/M.PHI. EC50)?
A: Its EC50 is 8 µM.

Q: What about the EC50 (HIV-1ADA; Mo/M.PHI., ADA, cell-free p24, Table 2, read-out: EC50) of the same compound?
A: Its EC50 is 2.1 µM.

Q: And the EC50 (HIV-2ROD)?
A: Its EC50 is 15.6 µM.

Q: And the “inhibition of replication of laboratory and drug-resistant HIV-1 strains” value (HIV-1, HIV-2 and SIV; RF, IIIB, SK1, MN, AZT-, nevirapine-, pyridinone-, NNRTI-resistant strains)?
A: The value was “effectively inhibited replication”.

Q: And the “activity against RT mutants, clinical strains, clades, HIV-2 and SIV” value (HIV-1, HIV-2 and SIV)?
A: Its value is “active against”.

Q: And the EC50 (HIV-1 SK1)?
A: The EC50 was 22.7 µM.
